According to paper PMC12751012, “Nanoscale Direct-to-Biology Optimization and Structural Insights into Selective S. aureus TrmD Inhibitors” (Journal of Medicinal Chemistry, 2025):

Target: T1, S. aureus TrmD (Staphylococcus aureus, UniProt Q2FZ43)
T1 construct: made in house; host or cells: E. coli BL21
T1 sequence (Q2FZ43 1-245): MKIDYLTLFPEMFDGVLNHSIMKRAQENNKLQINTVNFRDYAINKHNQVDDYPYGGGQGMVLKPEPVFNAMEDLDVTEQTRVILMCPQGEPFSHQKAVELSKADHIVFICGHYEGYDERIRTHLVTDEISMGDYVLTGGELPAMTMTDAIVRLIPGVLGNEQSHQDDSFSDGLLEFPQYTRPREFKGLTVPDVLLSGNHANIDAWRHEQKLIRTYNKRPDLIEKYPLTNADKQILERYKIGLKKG
Test: nanoSAR direct-to-biology FP displacement screening of crude triazoles
Format: binding
Details: crude triazole at 1 μM, assuming full conversion, 500 nM TrmD, 10 nM tracer 4; for inhibition at 1 µM: read-out: % displaced tracer
Method in brief: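 Crude CuAAC triazoles from alkyne 7 and 320 diverse azides were screened by FP displacement of 10 nM tracer 4 from 500 nM S. aureus TrmD. Buffer was 40 mM Tris HCl, 100 mM NaCl, 10 mM MgCl2, 5% glycerol, pH 7.5.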

Structure (SMILES) | % displaced tracer | inhibition at 1 µM
C[C@@H](CN)n1cc(-c2c[nH]c3nc[nH]c(=O)c23)nn1 [Compound 03H12, O=C1NC=NC2=C1C(C3=CN([C@H](CN)C)N=N3)=CN2] | 20% | 
C[C@@H](O)Cn1cc(-c2c[nH]c3nc[nH]c(=O)c23)nn1 [Compound 04A01, O=C1NC=NC=2NC=C(C=3N=NN(C3)C[C@H](O)C)C12] |  | 15%
CC[C@H](c1ccccn1)n1cc(-c2c[nH]c3nc[nH]c(=O)c23)nn1 [Compound 04A02, O=C1NC=NC=2NC=C(C=3N=NN(C3)[C@@H](c4ncccc4)CC)C12] |  | 15%
CC(C)(C)Cn1cc(-c2c[nH]c3nc[nH]c(=O)c23)nn1 [Compound 04A03, O=C1NC=NC=2NC=C(C=3N=NN(C3)CC(C)(C)C)C12] |  | 19%
O=c1[nH]cnc2[nH]cc(-c3cn(Cc4ccncc4)nn3)c12 [Compound 04A04, O=C1NC=NC=2NC=C(C=3N=NN(C3)Cc4ccncc4)C12] |  | 11%
O=c1[nH]cnc2[nH]cc(-c3cn([C@H]4C=CCCCC4)nn3)c12 [Compound 04B01, O=C1NC=NC=2NC=C(C=3N=NN(C3)[C@H]4C=CCCCC4)C12] |  | 32%
Cn1nncc1-n1cc(-c2c[nH]c3nc[nH]c(=O)c23)nn1 [Compound 04B02, O=C1NC=NC=2NC=C(C=3N=NN(C=4N(N=NC4)C)C3)C12] |  | 63%
O=c1[nH]cnc2[nH]cc(-c3cn(-c4ccc(CO)cc4)nn3)c12 [Compound 04B03, O=C1NC=NC=2NC=C(C=3N=NN(c4ccc(cc4)CO)C3)C12] |  | 47%
O=c1[nH]cnc2[nH]cc(-c3cn(CCO)nn3)c12 [Compound 04B04, O=C1NC=NC=2NC=C(C=3N=NN(C3)CCO)C12] |  | 63%
Cc1cncc(CCn2cc(-c3c[nH]c4nc[nH]c(=O)c34)nn2)n1 [Compound 04C01, O=C1NC=NC=2NC=C(C=3N=NN(C3)CCc4nc(cnc4)C)C12] |  | 69%
O=c1[nH]cnc2[nH]cc(-c3cn(Cc4ccc(Cl)s4)nn3)c12 [Compound 04C02, ClC=1SC(=CC1)CN2N=NC(C=3C=4C(=O)NC=NC4NC3)=C2] |  | 92%
CC(C)(C)OC(=O)N1CC[C@H](C2CC2)[C@H]1Cn1cc(-c2c[nH]c3nc[nH]c(=O)c23)nn1 [Compound 04C03, O=C(OC(C)(C)C)N1[C@@H]([C@@H](C2CC2)CC1)CN3N=NC(C=4C=5C(=O)NC=NC5NC4)=C3] |  | 52%
O=c1[nH]cnc2[nH]cc(-c3cn([C@@H]4CC[C@H]4F)nn3)c12 [Compound 04C04, F[C@H]1[C@H](N2N=NC(C=3C=4C(=O)NC=NC4NC3)=C2)CC1] |  | 21%
O=C1CCC[C@@H](Cn2cc(-c3c[nH]c4nc[nH]c(=O)c34)nn2)N1 [Compound 04D01, O=C1NC=NC=2NC=C(C=3N=NN(C3)C[C@H]4NC(=O)CCC4)C12] |  | 75%
C[C@H]1CCCC[C@]1(C)n1cc(-c2c[nH]c3nc[nH]c(=O)c23)nn1 [Compound 04D02, O=C1NC=NC=2NC=C(C=3N=NN(C3)[C@@]4([C@H](CCCC4)C)C)C12] |  | 27%
CO[C@H]1COC[C@@H]1n1cc(-c2c[nH]c3nc[nH]c(=O)c23)nn1 [Compound 04D03, O=C1NC=NC=2NC=C(C=3N=NN(C3)[C@@H]4[C@@H](OC)COC4)C12] |  | 37%

Structure (SMILES) | % displaced tracer | inhibition at 1 µM
O=c1[nH]cnc2[nH]cc(-c3cn([C@H]4COC[C@@H]4n4cccn4)nn3)c12 [Compound 04D04, O=C1NC=NC=2NC=C(C=3N=NN(C3)[C@@H]4[C@@H](N5N=CC=C5)COC4)C12] |  | 51%
O=C1CC[C@@H](Cn2cc(-c3c[nH]c4nc[nH]c(=O)c34)nn2)O1 [Compound 04E02, O=C1O[C@H](CN2N=NC(C=3C=4C(=O)NC=NC4NC3)=C2)CC1] |  | 22%
O=c1[nH]cnc2[nH]cc(-c3cn(Cc4nnc(C5CC5)o4)nn3)c12 [Compound 04E03, O=C1NC=NC=2NC=C(C=3N=NN(C3)CC=4OC(=NN4)C5CC5)C12] |  | 44%
COc1ccc(C)cc1[C@@H](C)n1cc(-c2c[nH]c3nc[nH]c(=O)c23)nn1 [Compound 04E04, O=C1NC=NC=2NC=C(C=3N=NN(C3)[C@@H](c4c(OC)ccc(c4)C)C)C12] |  | 65%
O=c1[nH]cnc2[nH]cc(-c3cn(Cc4ccno4)nn3)c12 [Compound 04F02, O=C1NC=NC=2NC=C(C=3N=NN(C3)CC=4ON=CC4)C12] |  | 92%
O=c1[nH]cnc2[nH]cc(-c3cn(C[C@H](O)c4ccccc4)nn3)c12 [Compound 04F03, O=C1NC=NC=2NC=C(C=3N=NN(C3)C[C@H](O)c4ccccc4)C12] |  | 57%
O=c1[nH]cnc2[nH]cc(-c3cn(-c4ccccc4)nn3)c12 [Compound 04F04, O=C1NC=NC=2NC=C(C=3N=NN(c4ccccc4)C3)C12] |  | 33%
Cc1c[nH]nc1Cn1cc(-c2c[nH]c3nc[nH]c(=O)c23)nn1 [Compound 04G01, O=C1NC=NC=2NC=C(C=3N=NN(C3)CC4=NNC=C4C)C12] |  | 87%
O=c1[nH]cnc2[nH]cc(-c3cn(CCc4ccccn4)nn3)c12 [Compound 04G02, O=C1NC=NC=2NC=C(C=3N=NN(C3)CCc4ncccc4)C12] |  | 89%
O=C1NCCN1CCn1cc(-c2c[nH]c3nc[nH]c(=O)c23)nn1 [Compound 04G03, O=C1N(CCN2N=NC(C=3C=4C(=O)NC=NC4NC3)=C2)CCN1] |  | 15%
O=c1[nH]cnc2[nH]cc(-c3cn(Cc4nccs4)nn3)c12 [Compound 04G04, S1C(=NC=C1)CN2N=NC(C=3C=4C(=O)NC=NC4NC3)=C2] |  | 68%
C[C@H](c1csc2ccccc12)n1cc(-c2c[nH]c3nc[nH]c(=O)c23)nn1 [Compound 04H01, S1c2c(cccc2)C(=C1)[C@H](N3N=NC(C=4C=5C(=O)NC=NC5NC4)=C3)C] |  | 87%
NC(=O)C1(n2cc(-c3c[nH]c4nc[nH]c(=O)c34)nn2)CC1 [Compound 04H02, O=C1NC=NC=2NC=C(C=3N=NN(C3)C4(C(=O)N)CC4)C12] |  | 33%
O=c1[nH]cnc2[nH]cc(-c3cn(C[C@@H]4CCCCC4(F)F)nn3)c12 [Compound 04H03, F[C@@]1(F)[C@H](CN2N=NC(C=3C=4C(=O)NC=NC4NC3)=C2)CCCC1] |  | 78%
O=c1[nH]cnc2[nH]cc(-c3cn(-c4cccc(F)c4)nn3)c12 [Compound 04H04, Fc1cc(N2N=NC(C=3C=4C(=O)NC=NC4NC3)=C2)ccc1] |  | 16%
